In patent US10294248B2, “Beta-lactamase inhibitors” (VenatoRx Pharmaceuticals, Inc., priority 2013, dated 2019):

Key:
[1] = tested on: K. pneumoniae A-1797 expressing KPC-2 and VIM-4; assay: Broth microdilution MIC, K. pneumoniae A-1797 KPC-2/VIM-4; format: cell-based; details: fixed 4 μg/mL meropenem; CAMHB, 16-20 hours at 37° C.
Outline: (§1)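 The MIC, judged visually after 16-20 hours at 37° C, is the lowest test-compound level stopping growth when combined with a β-lactam at a constant 4 μg/ml. Compound was titrated two-fold over 32 to 0.25 μg/ml in cation-adjusted Mueller Hinton broth.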

[2] = tested on: E. coli ESBL4 expressing CTX-M-15; assay: Broth microdilution MIC, E. coli ESBL4 CTX-M-15; format: cell-based; details: fixed 4 μg/mL ceftazidime; CAMHB, 16-20 hours at 37° C.
Outline: as §1

[3] = tested on: S. aureus MSSA-7 producing penicillinase PC-1; assay: Broth microdilution MIC, S. aureus MSSA-7 PC-1; format: cell-based; details: fixed 4 μg/mL piperacillin; CAMHB, 16-20 hours at 37° C.
Outline: as §1

[4] = target: T1, KPC-2 β-lactamase (Class A carbapenemase) (Klebsiella pneumoniae, UniProt Q9F663); assay: β-Lactamase inhibition, KPC-2; format: biochemical; details: imipenem substrate, 300 nm; 15 min preincubation at 37° C., PBS pH 7.4
T1 construct: made in house; host or cells: E. coli BL21(DE3)
T1 sequence (Q9F663 25-293, looked up): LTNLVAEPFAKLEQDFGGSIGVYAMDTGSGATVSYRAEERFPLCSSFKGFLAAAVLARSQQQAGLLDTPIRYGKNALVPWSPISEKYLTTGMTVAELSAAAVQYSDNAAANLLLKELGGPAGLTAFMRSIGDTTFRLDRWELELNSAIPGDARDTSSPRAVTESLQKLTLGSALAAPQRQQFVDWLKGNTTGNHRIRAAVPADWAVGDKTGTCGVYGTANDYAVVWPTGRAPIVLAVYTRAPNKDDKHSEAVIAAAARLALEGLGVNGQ
Outline: (§2)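 Native untagged enzymes expressed in E. coli BL21(DE3), purified by cation exchange and gel filtration. Inhibitor preincubated with enzyme 15 min at 37 °C; hydrolysis followed by absorbance: imipenem at 300 nm for KPC-2, cefotaxime at 260 nm for SHV-5. IC50 as concentration halving initial hydrolysis rate versus inhibitor-free wells.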

[5] = target: T2, OXA-1 β-lactamase (Class D oxacillinase) (Escherichia coli, UniProt P13661); assay: β-Lactamase inhibition, OXA-1; format: biochemical; details: nitrocefin 100 μM, 486 nm; 15 min preincubation at 37° C., PBS pH 7.4
T2 construct: made in house; host or cells: E. coli BL21(DE3)
T2 sequence (P13661 26-276): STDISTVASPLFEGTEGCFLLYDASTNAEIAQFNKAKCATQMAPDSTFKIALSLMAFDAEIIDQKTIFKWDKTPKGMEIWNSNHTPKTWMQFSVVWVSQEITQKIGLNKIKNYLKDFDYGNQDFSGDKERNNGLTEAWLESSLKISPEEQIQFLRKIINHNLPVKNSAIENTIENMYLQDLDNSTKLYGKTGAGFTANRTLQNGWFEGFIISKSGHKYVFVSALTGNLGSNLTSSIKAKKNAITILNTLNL
Outline: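 Untagged enzyme from E. coli BL21(DE3), purified by Capto S then Superdex 75; 15 min 37 °C preincubation with inhibitor; KPC-2 read with imipenem at 300 nm, SHV-5 with cefotaxime at 260 nm, OXA-1 with nitrocefin 100 μM final at 486 nm; 10 min kinetic read; IC50 vs uninhibited wells.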

[6] = tested on: P. aeruginosa Ps296 expressing VIM-2; assay: Broth microdilution MIC, P. aeruginosa Ps296 VIM-2; format: cell-based; details: fixed 4 μg/mL meropenem; CAMHB, 16-20 hours at 37° C.
Outline: as §1

[7] = tested on: K. pneumoniae 156319 expressing KPC-3; assay: Broth microdilution MIC, K. pneumoniae 156319 KPC-3; format: cell-based; details: fixed 4 μg/mL meropenem; CAMHB, 16-20 hours at 37° C.
Outline: as §1

[8] = target: T3, p99 AmpC β-lactamase (Class C) (Enterobacter cloacae, UniProt P05364); assay: β-Lactamase inhibition, p99 AmpC; format: biochemical
T3 construct: made in house; host or cells: E. coli BL21(DE3)
T3 sequence (P05364 21-381): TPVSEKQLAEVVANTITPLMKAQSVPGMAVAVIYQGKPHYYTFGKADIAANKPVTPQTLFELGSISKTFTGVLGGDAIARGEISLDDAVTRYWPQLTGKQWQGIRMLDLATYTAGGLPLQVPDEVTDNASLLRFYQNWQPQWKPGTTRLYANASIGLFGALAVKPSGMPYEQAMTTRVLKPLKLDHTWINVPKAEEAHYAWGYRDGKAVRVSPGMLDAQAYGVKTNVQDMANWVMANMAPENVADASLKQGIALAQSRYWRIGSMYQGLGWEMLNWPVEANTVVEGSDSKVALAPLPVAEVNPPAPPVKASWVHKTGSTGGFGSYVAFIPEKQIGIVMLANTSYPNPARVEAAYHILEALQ

[9] = tested on: E. cloacae 144200 expressing Class C P99 AmpC; assay: Broth microdilution MIC, E. cloacae 144200 p99 AmpC; format: cell-based; details: fixed 4 μg/mL ceftazidime; CAMHB, 16-20 hours at 37° C.
Outline: as §1

[10] = target: T4, VIM-2 metallo-β-lactamase (Class B) (Pseudomonas aeruginosa, UniProt Q9K2N0); assay: β-Lactamase inhibition, VIM-2; format: biochemical; details: nitrocefin 100 μM, 486 nm; 15 min preincubation at 37° C., PBS pH 7.4
T4 construct: made in house; host or cells: E. coli BL21(DE3)
Outline: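 Nitrocefin hydrolysis, read at 486 nm over 10 min, served as the measure of VIM-2 activity. The enzyme had been incubated with compound for 15 min at 37 °C before 100 μM substrate was added, and IC50 values were fitted from percent inhibition of the initial rate.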

[11] = target: T5, SHV-5 β-lactamase (Class A ESBL) (Klebsiella pneumoniae, UniProt P0A3M1); assay: β-Lactamase inhibition, SHV-5; format: biochemical
T5 construct: made in house; host or cells: E. coli BL21(DE3)
T5 sequence (P0A3M1 22-286): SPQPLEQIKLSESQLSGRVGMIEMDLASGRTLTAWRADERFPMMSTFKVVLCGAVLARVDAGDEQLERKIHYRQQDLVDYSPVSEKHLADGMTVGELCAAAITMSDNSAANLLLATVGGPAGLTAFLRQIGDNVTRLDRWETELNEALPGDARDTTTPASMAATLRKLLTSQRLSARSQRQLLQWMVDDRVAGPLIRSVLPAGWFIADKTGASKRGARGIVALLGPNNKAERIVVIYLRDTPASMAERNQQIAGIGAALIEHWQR
Outline: as §2

| SMILES | MIC of example compound in presence of fixed β-lactam: Fixed Mero, K. P. A-1797 KPC-2 VIM-4 [1] | MIC of example compound in presence of fixed β-lactam: Fixed CAZ, E. coli ESBL4 CTX-M-15 [2] | MIC of example compound in presence of fixed β-lactam: Fixed Pip, S. aureus MSSA-7 PC-1 [3] | IC50 [4] [nM] | IC50 [5] [nM] | MIC of example compound in presence of fixed β-lactam: Fixed Mero, P. aerug. Ps296 VIM-2 [6] | MIC of example compound in presence of fixed β-lactam: Fixed Mero, K. P. 156319 KPC-3 [7] | IC50 [8] [nM] | MIC of example compound in presence of fixed β-lactam: Fixed CAZ, E. cl. 144200 p99 AmpC [9] | IC50 [10] [nM] | IC50 [11] [nM] |
| --- | --- | --- | --- | --- | --- | --- | --- | --- | --- | --- | --- |
| NCC(=O)N1CCN(CC(=O)N[C@H]2Cc3cccc(C(=O)O)c3OB2O)CC1 [Example 17, 3-{2-[4-(2-Amino-acetyl)-piperazin-1-yl]-acetylamino}-2-hydroxy-3,4-dihydro-2H-benzo[e][1,2]oxaborinine-8-carboxylic acid] | A (an MIC of the fixed β-lactam antibiotic in the presence of >32 μg/mL of a β-lactamase inhibitor) | B (the MIC in the presence of between 8 and 32 μg/mL of a β-lactamase inhibitor) | C (the MIC in the presence of <4 μg/mL of a β-lactamase inhibitor) | 100 to 1000 | < 100 | A (an MIC of the fixed β-lactam antibiotic in the presence of >32 μg/mL of a β-lactamase inhibitor) | B (the MIC in the presence of between 8 and 32 μg/mL of a β-lactamase inhibitor) | < 100 | C (the MIC in the presence of <4 μg/mL of a β-lactamase inhibitor) | 1000 to 10000 | < 100 |
| O=C(CN1CCN(CCO)CC1)N[C@H]1Cc2cccc(C(=O)O)c2OB1O [Example 18, 2-Hydroxy-3-{2-[4-(2-hydroxy-ethyl)-piperazin-1-yl]-acetylamino}-3,4-dihydro-2H-benzo[e][1,2]oxaborinine-8-carboxylic acid] | B (the MIC in the presence of between 8 and 32 μg/mL of a β-lactamase inhibitor) | B (the MIC in the presence of between 8 and 32 μg/mL of a β-lactamase inhibitor) | A (an MIC of the fixed β-lactam antibiotic in the presence of >32 μg/mL of a β-lactamase inhibitor) | 100 to 1000 | < 100 | B (the MIC in the presence of between 8 and 32 μg/mL of a β-lactamase inhibitor) | C (the MIC in the presence of <4 μg/mL of a β-lactamase inhibitor) | < 100 | C (the MIC in the presence of <4 μg/mL of a β-lactamase inhibitor) | 100 to 1000 | 100 to 1000 |
| NCC1CCCN(CC(=O)N[C@H]2Cc3cccc(C(=O)O)c3OB2O)C1 (some centres unmarked) [Example 19, 3-[2-(3-Aminomethyl-piperidin-1-yl)-acetylamino]-2-hydroxy-3,4-dihydro-2H-benzo[e][1,2]oxaborinine-8-carboxylic acid] | A (an MIC of the fixed β-lactam antibiotic in the presence of >32 μg/mL of a β-lactamase inhibitor) | C (the MIC in the presence of <4 μg/mL of a β-lactamase inhibitor) | B (the MIC in the presence of between 8 and 32 μg/mL of a β-lactamase inhibitor) | 100 to 1000 | < 100 | A (an MIC of the fixed β-lactam antibiotic in the presence of >32 μg/mL of a β-lactamase inhibitor) | B (the MIC in the presence of between 8 and 32 μg/mL of a β-lactamase inhibitor) | < 100 | C (the MIC in the presence of <4 μg/mL of a β-lactamase inhibitor) | 10000 to 100000 | < 100 |
| CNC1CCN(CC(=O)N[C@H]2Cc3cccc(C(=O)O)c3OB2O)CC1O (some centres unmarked) [Example 20, 2-Hydroxy-3-[2-(3-hydroxy-4-methylamino-piperidin-1-yl)-acetylamino]-3,4-dihydro-2H-benzo[e][1,2]oxaborinine-8-carboxylic acid] | A (an MIC of the fixed β-lactam antibiotic in the presence of >32 μg/mL of a β-lactamase inhibitor) | C (the MIC in the presence of <4 μg/mL of a β-lactamase inhibitor) | C (the MIC in the presence of <4 μg/mL of a β-lactamase inhibitor) | 100 to 1000 | < 100 | B (the MIC in the presence of between 8 and 32 μg/mL of a β-lactamase inhibitor) | C (the MIC in the presence of <4 μg/mL of a β-lactamase inhibitor) | < 100 | C (the MIC in the presence of <4 μg/mL of a β-lactamase inhibitor) | 1000 to 10000 | 100 to 1000 |
| COC1CN(CC(=O)N[C@H]2Cc3cccc(C(=O)O)c3OB2O)CCC1N (some centres unmarked) [Example 21, 3-[2-(4-Amino-3-methoxy-piperidin-1-yl)-acetylamino]-2-hydroxy-3,4-dihydro-2H-benzo[e][1,2]oxaborinine-8-carboxylic acid] | A (an MIC of the fixed β-lactam antibiotic in the presence of >32 μg/mL of a β-lactamase inhibitor) | C (the MIC in the presence of <4 μg/mL of a β-lactamase inhibitor) | C (the MIC in the presence of <4 μg/mL of a β-lactamase inhibitor) | 100 to 1000 | < 100 | B (the MIC in the presence of between 8 and 32 μg/mL of a β-lactamase inhibitor) | C (the MIC in the presence of <4 μg/mL of a β-lactamase inhibitor) | < 100 | C (the MIC in the presence of <4 μg/mL of a β-lactamase inhibitor) | 1000 to 10000 | < 100 |
| NC1CCN(CCC(=O)N[C@H]2Cc3cccc(C(=O)O)c3OB2O)CC1 [Example 22, 3-[3-(4-Amino-piperidin-1-yl)-propionylamino]-2-hydroxy-3,4-dihydro-2H-benzo[e][1,2]oxaborinine-8-carboxylic acid] | A (an MIC of the fixed β-lactam antibiotic in the presence of >32 μg/mL of a β-lactamase inhibitor) | C (the MIC in the presence of <4 μg/mL of a β-lactamase inhibitor) | C (the MIC in the presence of <4 μg/mL of a β-lactamase inhibitor) | 100 to 1000 | 100 to 1000 | A (an MIC of the fixed β-lactam antibiotic in the presence of >32 μg/mL of a β-lactamase inhibitor) | B (the MIC in the presence of between 8 and 32 μg/mL of a β-lactamase inhibitor) | < 100 | C (the MIC in the presence of <4 μg/mL of a β-lactamase inhibitor) | 1000 to 10000 | 100 to 1000 |
| O=C(CCN1CCNCC1)N[C@H]1Cc2cccc(C(=O)O)c2OB1O [Example 23, 2-Hydroxy-3-(3-piperazin-1-yl-propionylamino)-3,4-dihydro-2H-benzo[e][1,2]oxaborinine-8-carboxylic acid] | B (the MIC in the presence of between 8 and 32 μg/mL of a β-lactamase inhibitor) | C (the MIC in the presence of <4 μg/mL of a β-lactamase inhibitor) | C (the MIC in the presence of <4 μg/mL of a β-lactamase inhibitor) | < 100 | < 100 | B (the MIC in the presence of between 8 and 32 μg/mL of a β-lactamase inhibitor) | C (the MIC in the presence of <4 μg/mL of a β-lactamase inhibitor) | < 100 | C (the MIC in the presence of <4 μg/mL of a β-lactamase inhibitor) | 1000 to 10000 | < 100 |
